The values below come from US20130338221A1, “PHOTOAGING PROTECTIVE COMPOSITION CONTAINING CHROMENES DERIVED FROM SARGASSUM HORNERI” (PUKYONG NATIONAL UNIVERSITY INDUSTRY-UNIVERSITY C, priority 2012, published 2013).

The subject of data set [1] is human dermal fibroblasts (HDF cells). As to the kind of experiment: Protective effect on viability of UV-A irradiated dermal fibroblasts (MTT assay). The data set is classed as cell-based. Background: Tetrazolium dyes change colour on reduction, which living cells bring about.
Description: HDF cells were seeded in 24-well plate at a density of 1×10^5 cells/well with DMEM containing 10% FBS, 2 mM gluramine and 100 μg/ml penicillin-streptomycin at 37° C. humidified atmosphere of 5% CO2. After incubation for 24 h, the cells were exposed to UV-A energy at the range of 6 J/cm^2 (365 nm UV-A light source, Bio-Sun lamp, Vilber Lourmat, Marine, France) in 200 μl of phosphate buffered saline (PBS) to each well. After UV-A irradiation, the cells were incubated for 24 h in serum-free DMEM.
Viability level of HDF cell was determined through ability of mitochondria capable of converting 3-(4,5-dimethylthiazol-2-yl)-2,5-diphenyl tetrazolium bromide (MTT) into a insoluble formazan product. Dermal fibroblasts were grown in 96-well plates at a density of 1×10^4 cells/well. After 24 h, after irradiating UV-A (6 J/cm^2) to the cell, the cells were cultured with the chromenes sample or without the chromenes sample at 37° C. humidified atmosphere of 5% CO2. The supernatant medium was removed, and the cells were incubated with 100 μl of MTT (1 mg/ml) for 4 h. The unconvertived MTT was removed, dimethyl sulfoxide (DMSO) was added, and then cell viability was measured at the absorbance at 540 nm using a microplate reader (Tecan Austria GmbH, Austria) to determine the amount of formazan in a cell. Relative cell viability was quantified as a percentage compared to the control group.
Data set [2] has as its system MMP-13. Briefly: MMP-13 secretion ELISA in UV-A irradiated HDF. The data set is classed as cell-based, human. How it is done: (§1) For measuring various collagen degradation MMP and inflammatory cytokine, collagen content in a cell, an enzyme-linked immunosorbent assay was used after UV-A irradiation. After irradiating HDF cell with UV-A, the cells were incubated with various concentrations of sample. After 24 h, the supernatants of the HDF cells were collected, and used for testing MMP, cytokine, hyaluronan, and collagen. For testing, Biotrak™ ELISA kits (Amersham Pharmacia Biosciences, England, UK), procollagen ELISA kit (Takara Bio Inc), and Hyaluronan ELISA kits (R&D system) were used according to the manufacturer's instructions.
(§2) Collagens are known to as main component of the skin and degraded by collagenase MMPs. Among MMPs, MMP-1, MMP-8 and MMP-13 are family of collagenases which are capable of degrading triple-helical fibrillar collagens. […] Therefore, inhibitory effect of chromenes on collagenase MMP secretions from the UV-A irradiated dermal fibroblasts was determined using ELISA assay.

The test system of data set [3] is intracellular glutathione (GSH) in HDF cells. As to the kind of experiment: Intracellular GSH level (mBBr) after UV-A. The data set is classed as cell-based, human. As to the method: Intracellular glutathione (GSH) level in intact cells was determined using monobromobimane as a thiol-staining reagent. HDF cells were seeded into fluorescence microtiter 96-well plates at a density of 5×10^3 cells/well. Cell were washed three times with PBS and treated with various concentrations of the compounds after 6 J/cm^2 of UV-A irradiation and incubated for 30 min. 0.04 mM of Monobromobimane was added to cells and staining was carried out for 24 h at 37° C. in the dark. After staining fluorescence intensity was measured (excitation and emission: 360 and 465 nm) using a GENios® fluorescence microplate reader (Tecan Austria GmbH, Salzburg, Austria).
GSH is the most abundant low molecular weight thiol inside mammalian cells, and changes in glutathione level directly reflect intracellular redox alterations. To investigate the relationship between the increased ROS and the level of antioxidant materials in cells, the intracellular GSH level was measured.

The subject of data set [4] is hyaluronan. Briefly: Hyaluronan secretion ELISA in UV-A irradiated fibroblasts. In kind it is cell-based, human. How it is done:
as §1
Then, we evaluated effect of chromenes on hyaluronan secretion by UV-A irradiation.
On the technique in general: An ELISA detects its analyte on a solid surface through an enzyme-linked reagent.

Data set [5] has as its system cell membrane proteins of HDF cells. Briefly: Cell membrane protein oxidation (carbonyl groups, DNPH) after UV-A. In kind it is cell-based, human.
Description: The amount of carbonyl groups in cell membrane proteins was determined to assess the cellular protein oxidation level that is a standard of determining the degree of cell membrane damage. HDF cells were co-cultured with various concentrations of compounds for 24 h after 6 J/cm^2 of UV-A irradiation. Cell were washed three times with PBS and lysed in lysis buffer without reducing agents (25 mM Tris-HCl, pH 7.8, 2 mM EDTA, 180 mM NaCl and 1% Triton X-100). Aliquots of cell lysates were separately incubated then trichloroacetic acid (400 μl from 20% trichloroacetic acid) was added to each reaction mixture and solubilized proteins were precipitated by centrifugation at 3,000 rpm for 15 minutes. Precipitated protein was resuspended in 2% 2,4-dinitrophenylhydrazine (2 mM HCl) and incubated at room temperature for 20 min. The protein was precipitated again with 20% trichloroacetic acid and the pellet was washed three times with ethanol:ethylacetate (1:1 v/v) solution. The pellet was then dissolved in 6 M guanidin hydrochloride (500 μl) and incubated for 15 min at 37° C. After centrifugation at 1,500 g for 5 min, absorbance of the supernatant was recorded against a complementary blank at 370 nm using a GENios® fluorescence microplate reader (Tecan Austria GmbH, Salzburg, Austria).
The test system of data set [6] is IL-6. As to the kind of experiment: IL-6 secretion ELISA in UV-A irradiated HDF. The data set is classed as cell-based, human. As to the method: as §1
(§3) To investigate effect of chromenes on the cytokine production in UV-A irradiated dermal fibroblasts, inflammatory cytokine production was measured using ELISA assay (FIGS. 18 to 20).

Data set [7] has as its system type I procollagen. As to the kind of experiment: Type I procollagen ELISA in UV-A irradiated HDF. In kind it is cell-based, human. How it is done: as §1
Alterations of collagen have been thought to be a cause of the clinical skin changes of photoaging. The dermis contains predominantly type I collagen (85-90%) and the precursor molecules of collagen are called procollagen, which is synthesized in the form of polypeptide chains of type I collagen in dermal fibroblasts. UV irradiation induces the activity and synthesis of MMP in human skin, which mediate collagen destruction that results in much connective tissue damage. Therefore, we also studied the effects of chromenes on the level of type I procollagen in UVA-irradiated cultured dermal fibroblasts. The procollagen level was determined in the culture medium by ELISA assay.

The test system of data set [8] is intracellular reactive oxygen species (ROS) in HDF cells. Briefly: Intracellular ROS generation by UV-A (DCFH-DA). In kind it is cell-based, human.
Description: Intracellular formation of reactive oxygen species (ROS) was assessed using oxidation sensitive dye 2′,7′-dichlorofluorescin diacetate (DCFH-DA) as the substrate. HDF cells growing in fluorescence microtiter 96-well plates for 24 h were exposed to UV-A (6 J/cm^2). The exposed cells were loaded with 20 μM DCFH-DA dissolved in PBS and incubated for 30 min in the dark at 37° C. humidified atmosphere of 5% CO2. […] The formation of 2′,7′-dichlorofluorescein (DCF) dissolved in PBS due to oxidation of DCFH in the presence of various ROS was read after every 20 min at the excitation wavelength (Ex) of 485 nm and the emission wavelength (Em) of 535 nm using a fluorescence microplate reader (Tecan Austria GmbH, Salzburg, Austria).
The cell system was labeled with DCFH-DA and followed by UV-A irradiation.
Data set [9] relates to fibronectin. As to the kind of experiment: Immunofluorescent labeling of fibronectin after UV-A. In kind it is cell-based, human. As to conditions: 10 μM. As to the method:
(§4) Immunostaining is used to determine the subcellular distribution and organization of proteins. Cells were grown in 6-well plates, Aspirate liquid, then cover cells to a depth of 2-3 mm with 4% formaldehyde in PBS for 15 min at room temperature. Aspirate fixative, rinse three times in PBS for 5 minutes each then incubated primary antibody and for overnight at 4° C. Rinse three times in PBS for 5 min each. Incubate specimen in fluorochrome-conjugated secondary antibody diluted in Antibody Dilution Buffer for 1-2 h at room temperature in dark and incubated with Hoechest 33342 (Sigma-Aldrich Co. MO, USA). For best results, examine specimens immediately using appropriate excitation wavelength. For long-term storage, store slides flat at 4° C. protected from light. The image of HDF cells were collected using Leica invented microscopy (DM IRB) with 40× objective and a digital CCD camera (CTR 6000, Leica, Wetzlar, Germany) under fluorescence.
(§5) It has been reported that the exposure to UV-A causes degradation of collagen and fibronectin in the extracellular matrix. […] Results were evaluated through the images of the labeling assay under a fluorescent microscope with the previously mentioned excitation and emission values.

Data set [10] has as its system hyaluronan synthase 1. Briefly: Immunofluorescent labeling of hyaluronan synthase 1 after UV-A. The data set is classed as cell-based, human. As to conditions: 10 μM. As to the method:
as §4, §5

Data set [11] deals with IL-1β. Briefly: IL-1β secretion ELISA in UV-A irradiated HDF. The data set is classed as cell-based, human. As to the method:
as §1, §3

Data set [12] has as its system MMP-1. As to the kind of experiment: MMP-1 secretion ELISA in UV-A irradiated HDF. The data set is classed as cell-based, human. How it is done:
as §1, §2

For data set [13], the system named is TNF-α. As to the kind of experiment: TNF-α mRNA and protein expression (RT-PCR, Western blot) in UV-A irradiated HDF. In kind it is cell-based, human. As to the method: Total cellular RNA was isolated using Trizol reagent (Invitrogen Co., CA, USA). The 2 μg of isolated RNA was reverse transcribed into cDNA using oligo-(dT) primer (Promega, Madison, Wis., USA). Target cDNA was amplified using the forward and reverse primer sequences. The amplification was carried out at 95° C. for 45 sec, 60° C. for 50 sec and 72° C. for 60 sec for cycles. After amplification step, extension process proceeded consecutively at 72° C. for 5 min. […] Gels were stained with 1 mg/ml of EtBr and photographed by UV illumination using AlphaEase® gel image analysis software (Alpha Innotech., San Leandro, Calif., USA).
Whole cells were lysed in RIPA buffer (Sigma-Aldrich Corp., St. Louis, USA). After centrifugation, total protein amount of cell lysates was determined using Lowry method (BioRad Laboratories, Hercules, Calif., USA). […] All primary monoclonal antibodies were diluted with TBS-T at 1:1000 ratio. Bound antibodies were detected by horseradish peroxidase-conjugated secondary antibodies for 1 h at room temperature and the immunoreactive proteins were detected using a chemiluminescent ECL assay kit (Amersham Pharmacia Biosciences, England, UK) according to the manufacturer's instructions. Western blot bands were visualized using a LAS3000® Luminescent image analyzer (Fujifilm Life Science, Tokyo, Japan).

For data set [14], the system named is TNF-α. As to the kind of experiment: TNF-α secretion ELISA in UV-A irradiated HDF. The data set is classed as cell-based, human. As to the method:
as §1, §3

Data set [15] concerns membrane lipid hydroperoxides of HDF cells. Briefly: Cell membrane lipid peroxidation (DPPP) after UV-A. In kind it is cell-based, human. How it is done: Intracellular lipid hydroperoxide levels were determined by the fluorescence probe, diphenyl-1-pyrenylphosphine (DPPP). HDF cells were seeded into fluorescence microtiter 96-well plates at a density of […] using serum-free media. After 80% confluence, HDF cells were treated with various concentrations of compounds and incubated for 24 h after 6 J/cm^2 of UV-A irradiation. Then, cells were washed three times with PBS and labeled with 13 μM DPPP (dissolved in DMSO) for 24 h at 37° C. in the dark. DPPP oxide fluorescence intensity was measured after 24 h at the excitation wavelength (Ex) of 361 nm and the emission wavelength (Em) of 380 nm using a GENios® fluorescence microplate reader (Tecan Austria GmbH, Salzburg, Austria).
The levels of lipid hydroperoxides in the presence and absence of chromenes were examined by using specific fluorescence probe, DPPP (FIG. 16). DPPP has been used as a sensitive method for measuring lipid hydroperoxides of cell membranes, since it successfully incorporates into membranes and oxidizes hydroperoxides to emit DPPP-oxide fluorescence.

For data set [16], the system named is HDF cells. As to the kind of experiment: Phototoxicity determination (MTT, compounds present during UV-A). The data set is classed as cell-based, human. As to conditions: retinoic acid 5 μM during UV-A. As to the method: HDF cells are exposed to UV-A light in the presence of chromenes and retinoic acid in concentrations of 5, 10, and 20 μM and 1, 2, and 5 μM, respectively. After 24 h, cell viability was determined by MTT assay.
In order to determine whether compounds have phototoxic effect, the cell viability of dermal fibroblasts was evaluated using MTT assay. Cells were co cultured with compounds and retinoic acid during UV-A irradiation. […] Therefore, the concentration of 1 μM retinoic acid was selected as a positive control for further experiment.

The mark [17] stands for this setting: A and B 5 to 20 μM, C 1 to 10 μM.
[18] abbreviates: Homo sapiens, retinoic acid 1 μM.
Setting [19] is: Homo sapiens, HDF, retinoic acid 1 μM.

Structures are written as SMILES.

Take `CC(C)=CCC/C(=C/CC/C(C)=C/CC[C@]1(C)CCc2cc(O)cc(C)c2O1)C(=O)O` [Compound A, sargachromenol]: in data set [1] (samples 10 μM), the “Fibroblasts protection (%)” value was found to be 37.25%. Further, in data set [2] (dose-dependent), the “MMP-13 secretion (in words)” value is recorded as “significantly reduced”. Also, the “MMP-13 inhibition (%)” value in data set [2] (samples 10 μM) was 23.82%. In addition, in data set [3] (samples 10 μM), the “Enhancement of GSH level (%)” value is reported as 23.17%. In addition, the “Hyaluronan (%)” value in [4] (samples 10 μM) turned out to be 16.67%. For the same molecule, the “Inhibition of protein oxidation (%)” value in data set [5] (samples 10 μM) was 30.57%. Besides, the “IL-6 secretion (in words)” value in data set [6] (setting [17]) is “slightly reduced”. Also, the “Inhibition of IL-6 secretion (%)” value in data set [6] (samples 10 μM) was 11.11%. Besides, the “Procollagen (%)” value in data set [7] (samples 10 μM) stood at 115.79%. For the same molecule, the “ROS scavenging (%)” value in data set [8] (samples 10 μM) turned out to be 38.58%. Besides, the “Protection of fibronectin decomposition” value in data set [9] is “not as significant as compound C”. For the same molecule, in [10], the “Hyaluronan synthase 1 amount” value is listed as “reduced”. Also, the “IL-1β secretion (in words)” value in [11] (setting [17]) was “slightly reduced”. For the same molecule, the “Inhibition of IL-1β secretion (%)” value in [11] (samples 10 μM) is recorded as 10.07%. The “MMP-1 secretion (in words)” value in [12] (dose-dependent) is “significantly reduced”. For the same molecule, the “MMP-1 inhibition (%)” value in [12] (samples 10 μM) is given as 27.76%. Also, in data set [13], the “Inhibition of TNF-α expression” value was “failed to show significant activity”. Moreover, the “TNF-α secretion (in words)” value in data set [14] (setting [17]) is “slightly reduced”. Further, the “Inhibition of TNF-α secretion (%)” value in [14] (samples 10 μM) is listed as 20.59%. Further, in [15] (samples 10 μM), the “Inhibition of lipid peroxidation (%)” value came out at 15.63%.
As for `CC1=C(/C=C/C(C)=C/C=C/C(C)=C/C(=O)O)C(C)(C)CCC1` [Retinoic acid, retinoic acid, reference compound], the “Fibroblasts protection (%)” value in [1] (retinoic acid 1 μM) stood at 12.21%. Further, the inhibition at 1 µM came to 37.1% in [2] (setting [18]); 55.4% in data set [5] (setting [19]); 14.1% in data set [6] (setting [18]); 6.71% in data set [11] (setting [18]); 30.7% in data set [12] (setting [18]); 24.4% in [14] (setting [18]). For the same molecule, testing at 1 µM in data set [15] (setting [19]) gave an inhibition of 21.6%. For the same molecule, the “Enhancement of GSH level (%)” value in data set [3] (retinoic acid 1 μM) came out at 15.85%. The “Hyaluronan (%)” value in data set [4] (retinoic acid 1 μM) is 31.11%. In data set [6] (at the same concentration (1 μM), UV-A irradiated HDF), the “IL-6 level after treatment” value was found to be 119 pg/mL. Besides, the Phototoxicity result in [16] is “a little phototoxic effect”. Besides, in data set [7] (1 μM, culture medium, UV-A irradiated HDF), the “Type I procollagen secretion level” value is 60 ng/mL. Further, in data set [7] (retinoic acid 1 μM), the “Procollagen (%)” value turned out to be 57.89%. Further, the “ROS scavenging (%)” value in data set [8] (retinoic acid 1 μM) is on record as 46.60%.

As a reminder, the inhibition is the share of the control response that was lost under treatment.
